Measurements as given in patent publication US4767742A, “Hirudin-PA and its derivatives, process for manufacturing these and the use of these substances” (Plantorgan-Werk Heinrich G. F. Christensen, KG, priority 1984, dated 1988).

How the values were obtained:
[1] = tested on: other proteinases of the blood clotting cascade; test: specificity against proteinases of the blood clotting cascade; format: biochemical
thrombin [2] = biological target: T1, thrombin (Homo sapiens, UniProt P00734); test: dissociation constant of the complex with thrombin; format: binding; conditions: read-out: dissociations constant Ki of the complex with thrombin
thrombin [3] = biological target: T1, thrombin; test: specific antithrombin activity; format: biochemical

| Substance | inhibition of other proteinases of the blood clotting cascade [1] | Ki (thrombin [2]) [nM] | specific antithrombin activity (thrombin [3]) |
| --- | --- | --- | --- |
| hirudin | inhibits no other proteinases of the blood clotting cascade | ~0.03 | – |
| hirudin-PA | – | 0.04 | 680-720 IU/mg |
